Experimental data: paper PMC7483518, “Destabilizing single chain major histocompatibility complex class I protein for repurposed enterokinase proteolysis” (Scientific Reports, 2020)
Like-named read-outs stand apart in the source and are kept apart here. Values belong to the compound of their own block, whether it stands above or below them.

What was measured:
[1] = target: photolabile unchained HLA-A*11:01 pMHC-I protein (Homo sapiens, UniProt P04439, A114D/D185E/E176A/F33Y/L180Q/S129P/T187R); assay: ELISA with photolabile unchained pMHC-I protein and UV irradiation; assay type: binding; settings: for ELISA450nm: Table 2, 62.5 nM photolabile pMHC-I mixture, 5 μM peptide in PBS, UV 365 nm 2 × 5 min on ice, 2 h room temperature on anti-β2m plate, Abs450nm − Abs570nm, instability cutoff < 0.6
[2] = test system: HLA-A*11:01 single chain protein; assay type: biochemical, Human; set-up: EZ50kDa / EZ50kD (pH 6.2) / EZ50kD (pH 8) / EZ50kD (normalised: EBV1101 = 1, EBV0201 = 0) / EZ50kDa rank: unit not given beside the values; settings: for EZ50kDa rank: HLA-A*11:01 single chain protein, 9-mer peptides;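 as to EZ50kD (pH 6.2): scaled with positive control peptide as 1 and negative control peptide as 0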
[3] = EASY MHC-I A*11:01, 2019-07-25, mean of the 2 replicates
[4] = EASY MHC-I A*11:01, gel 2019-07-17 lr1028-1036 5min, mean of 2 replicates
[5] = EASY MHC-I A*11:01, gel 2019-07-17 lr1028-1036 5min, replicate 1 (lanes 1-14)
[6] = EASY MHC-I A*11:01, gel 2019-07-17 lr1028-1036 5min, replicate 2 (lanes 15-28)
[7] = EASY MHC-I A*11:01, gel 2019-07-23 lr1037_1045_5min, replicate 1 (first lane set)
[8] = EASY MHC-I A*11:01, gel 2019-07-23 lr1037_1045_5min, replicate 2 (second lane set)

Compound: Nc1nc(Nc2ccc3c(c2)CC[C@@H](N2CCCC2)CC3)nn1-c1cc2c(nn1)-c1ccccc1CCC2 [CS1046]
EASY_mean ([1]; […], mean, STDEV): -0.001122

Compound: AIKTSPKA [EX1001]
EZ_mean [2]: -0.04572 | EASY_mean [1]: -0.01453

Compound: AIKTSPKAN [EX1006]
EZ_mean [2, 3]: -0.02264 | EASY_mean ([1]; […], mean, STDEV): 0.003202

Compound: AIKTSPKANK [EX1012, EGFR exon 19 deletion-derived peptide]
EZ_mean [2, 3]: -0.007078 | EASY_mean ([1]; […], mean, STDEV): 0.01176

Compound: AIKTSPKANKE [EX1019]
EZ_mean ([2]; EASY MHC-I A*11:01, 2019-07-26, mean of the 2 replicates): -0.09791 | EASY_mean ([1]; […], mean, STDEV): 0.001081

Compound: AIKTSPKANKEI [EX1027]
EZ_mean ([2]; EASY MHC-I A*11:01, 2019-08-01, mean of the 2 replicates): -0.13 | EASY_mean [1]: -0.02114

Compound: AINSEMFLR [reference compound]
EZ50kDa rank ([2]; pH 6.2, 37 °C): 0.901 | EZ50kD (pH 6.2) ([2]; pH 6.2): 0.9012 | EZ50kD (pH 8) [2]: 1.19

Compound: ATVLMGLGK [reference compound]
EZ50kD (pH 6.2) ([2]; Table 2, pH 6.2, 37 °C, enterokinase, Eq. (4), instability cutoff < 0.3): 1.039 | ELISA450nm [1]: 1.911

Compound: ATVQGQNLK [reference compound]
EZ50kD (pH 6.2) ([2]; pH 6.2): 0.8968 | EZ50kD (pH 8) [2]: 0.767

Compound: ATYGWNLVK [reference compound]
EZ50kD (pH 6.2) ([2]; pH 6.2): 0.8706 | EZ50kD (pH 8) [2]: 1.994

Compound: AVQTKPGLFK [reference compound]
EZ50kD (pH 6.2) ([2]; pH 6.2): 0.955 | EZ50kD (pH 8) [2]: 1.546

Compound: CLTSTVQLIM [TM1018]
EZ_mean ([2]; EASY MHC-I A*11:01, run 2019-08-07, 5min, mean of 2 replicates): -0.01698 | EASY_mean ([1]; […], mean, STDEV): 0.01464

Compound: CLTSTVQLIMQ [TM1029]
EZ_mean [2]: -0.1239 | EASY_mean ([1]; ELISA signal, mean, […]): -0.0718

Compound: CLTSTVQLIMQL [TM1040]
EZ_mean [2]: -0.1197 | EASY_mean ([1]; ELISA signal, mean, […]): -0.0545

Compound: DFGRAKLL [LR1005]
EZ_mean [2]: -0.05649 | EASY_mean ([1]; ELISA signal, mean, […]): -0.01718

Compound: DFGRAKLLG [LR1014]
EZ_mean [2]: -0.05414 | EASY_mean ([1]; ELISA signal, mean, […]): -0.02793

Compound: DFGRAKLLGA [LR1024]
EZ_mean [2]: -0.06389 | EASY_mean ([1]; ELISA signal, mean, […]): -0.02296

Compound: DFGRAKLLGAE [LR1035]
EZ_mean [2, 4]: -0.0623 | EZ50kD (normalised: EBV1101 = 1, EBV0201 = 0) [2, 5]: -0.08387 | Norm (50 kDa band adj. volume normalised: Undig_37C = 1, Dig_37C = 0) [2, 5]: -0.0751 | EZ50kD (normalised: EBV1101 = 1, EBV0201 = 0) [2, 6]: -0.04073 | Norm (50 kDa band adj. volume normalised: Undig_37C = 1, Dig_37C = 0) [2, 6]: -0.03413 | EASY_mean [1]: -0.05461

Compound: DFGRAKLLGAEE [LR1047]
EZ_mean [2]: -0.04163 | EASY_mean [1]: -0.01199

ELISA450nm [1]: 0.3956
Compound: DLAQCFFCFK [reference compound]

Compound: FGRAKLLG [LR1006]
EZ_mean [2]: -0.05388 | EASY_mean ([1]; ELISA signal, mean, […]): -0.01563

Compound: FGRAKLLGA [LR1015]
EZ_mean [2]: -0.04617 | EASY_mean ([1]; […], mean, STDEV): -0.02405

Compound: FGRAKLLGAE [LR1025]
EZ_mean [2]: -0.04476 | EASY_mean ([1]; ELISA signal, mean, […]): -0.01153

Compound: FGRAKLLGAEE [LR1036]
EZ_mean [2, 4]: -0.05281 | EZ50kD (normalised: EBV1101 = 1, EBV0201 = 0) [2, 5]: -0.07114 | Norm (50 kDa band adj. volume normalised: Undig_37C = 1, Dig_37C = 0) [2, 5]: -0.06733 | EZ50kD (normalised: EBV1101 = 1, EBV0201 = 0) [2, 6]: -0.03448 | Norm (50 kDa band adj. volume normalised: Undig_37C = 1, Dig_37C = 0) [2, 6]: -0.02973 | EASY_mean [1]: -0.04853

Compound: FGRAKLLGAEEK [LR1048]
EZ_mean [2]: -0.03879 | EASY_mean [1]: -0.01082

Compound: FGSLLDYV [CS1006]
EZ_mean [2]: -0.06948 | EASY_mean [1]: -0.03548

Compound: FGSLLDYVR [CS1015]
EZ_mean [2]: -0.05849 | EASY_mean [1]: -0.01602

Compound: FGSLLDYVRE [CS1025]
EZ_mean [2]: -0.05956 | EASY_mean [1]: 0.005114

Compound: FGSLLDYVREH [CS1036]
EZ_mean [2]: 0.04199 | EZ50kDa ([2]; Table 3, EGFR peptide library (n = 177, duplicated), pH 6.2, 37 °C, 14 h, enterokinase, Eq. (4)): 0.0420 ± 0.010 | EASY_mean [1]: 0.0933

ELISA450nm [1]: 0.3491
Compound: FIDSYICQV [reference compound]

Compound: FLLTKILTI [reference compound]
ELISA450nm [1]: 0.1791

Compound: FTNDSIISH [reference compound]
EZ50kDa rank ([2]; pH 6.2, 37 °C): 0.696 | EZ50kD (pH 6.2) ([2]; pH 6.2): 0.6961 | EZ50kD (pH 8) [2]: 0.1339

Compound: GAMLFLISGK [reference compound]
EZ50kD (pH 6.2) ([2]; pH 6.2): 0.7468 | EZ50kD (pH 8) [2]: 1.036

Compound: GLSPTVWLSA [reference compound]
ELISA450nm [1]: 0.2488

Compound: GRAKLLGA [LR1007]
EZ_mean [2]: -0.06438 | EASY_mean ([1]; ELISA signal, mean, […]): -0.02108

Compound: GRAKLLGAE [LR1016]
EZ_mean [2]: -0.03777 | EASY_mean ([1]; ELISA signal, mean, […]): -0.02066

Compound: GRAKLLGAEE [LR1026]
EZ_mean [2]: -0.04989 | EASY_mean ([1]; […], mean, STDEV): -0.01509

Compound: GRAKLLGAEEK [LR1037]
EZ_mean ([2]; EASY MHC-I A*11:01, gel 2019-07-23 lr1037_1045_5min, mean of 2 replicates): -0.05993 | EZ50kD (normalised: EBV1101 = 1, EBV0201 = 0) [2, 7]: -0.04549 | Norm (50 kDa band adj. volume normalised: Undig_37C = 1, Dig_37C = 0) [2, 7]: -0.01318 | EZ50kD (normalised: EBV1101 = 1, EBV0201 = 0) [2, 8]: -0.07437 | Norm (50 kDa band adj. volume normalised: Undig_37C = 1, Dig_37C = 0) [2, 8]: 0.01353 | EASY_mean [1]: 0.0001747

Compound: GRAKLLGAEEKE [LR1049]
EZ_mean [2]: -0.05058 | EASY_mean [1]: -0.01715

Compound: GSLLDYVR [CS1007]
EZ_mean [2]: -0.06759 | EASY_mean [1]: -0.02696

Compound: GSLLDYVRE [CS1016]
EZ_mean [2]: -0.06376 | EASY_mean [1]: -0.02695
